The assay deals with S. epidermidis biofilms. The assay can be described thus: Sterilization of S. epidermidis biofilms by diluted 50 ppm ClO2 or formol saline. The assay is classed as cell-based, Staphylococcus epidermidis. As to conditions: for minimal time of exposure to effect sterilization: 22° C. How it is done: Antibiotic activity against S. epidermidis biofilms are determined using a supravital dye which acts as an electron acceptor in coupled oxidative systems in biofilm bacteria. The method allows the bacteria to be examined undisturbed within the biofilm matrix in situ. Briefly stated, the biofilms are exposed to antibiotic solutions and incubated at […] for varying periods of time. Positive (viable, 1% peptone water) and negative (sterilized, 4% formol-peptone) controls are included in all experiments. After a designated exposure at 22° C. for varying periods of time between 15 seconds to 6 hours, the biofilms are rinsed twice in sterile water and allowed to drain. They are then placed in a flat agar medium incorporating substantive dyes and incubated at 37° C. for 4 hours, then 24 hours. Viability is assessed visually by a change in dye color and confirmed after 24 hours by mechanically scraping and subsequently culturing the biofilms. Sterilization is indicated by the absence of color changes and confirmed by culture of both intact and mechanically fragmented biofilms. Inhibition of growth is indicated by a lack of color change after a 4-hour incubation and confirmed by a positive color change by 24 hours.
This conclusion is underscored in studies that assess the efficacy of methods employed using compositions of the invention in combination with an infusate used in C A P D and C C P D practice, Inpersol® Abbott Laboratories, Montreal, Canada, which contains 4.25% dextrose and has a pH of 5.2. A 50 ppm ClO2 solution is diluted from 1:2 to 1:10 with normal saline (denoted below as NS), Inpersol® peritoneal dialyzate (denoted as PD), and peptone-saline (a standardized protein digest obtained from Oxoid, denoted as PS). Four percent formol saline, a known potent environmental disinfectant of considerable toxicity, is used as a reference. The results are expressed as the minimal time of exposure at 22° C. to effect sterilization of S. epidermidis biofilms: […]

Each structure is given as a SMILES string.

Regarding `[O][Cl+][O-]` [ClO2, chlorine dioxide], the “minimal time of exposure to effect sterilization” value (shortened to “minimal time of exposure”) was determined as 0.25 min (dilution 1/2 in normal saline (NS)); 1 min (dilution 1/2 in peptone-saline (PS)); 0.083 min (dilution 1/2 in peritoneal dialyzate (PD)); 0.5 min (dilution 1/3 in normal saline (NS)); 3 min (dilution 1/3 in peptone-saline (PS)); 1 min (dilution 1/3 in peritoneal dialyzate (PD)). In addition, the “minimal time of exposure” value (dilution 1/5 in normal saline (NS)) was 5 min; the “minimal time of exposure” value (dilution 1/5 in peptone-saline (PS)) stood at 60 min; the “minimal time of exposure” value (dilution 1/5 in peritoneal dialyzate (PD)) worked out at 5 min; the “minimal time of exposure” value (dilution 1/7 in normal saline (NS)) is on record as 15 min; the “minimal time of exposure” value (dilution 1/7 in peptone-saline (PS)) worked out at 240 min; the “minimal time of exposure” value (dilution 1/7 in peritoneal dialyzate (PD)) is reported as 7 min. In addition, the “minimal time of exposure” value was 60 min (dilution 1/10 in normal saline (NS)), 1440 min (dilution 1/10 in peptone-saline (PS)) and 10 min (dilution 1/10 in peritoneal dialyzate (PD)). In addition, the “effect of diluting with peptone solutions on sterilizing activity” value (diluted with peptone solutions) was “inhibitory effect on the sterilizing activity”. In addition, the “effect of peritoneal dialysis solution on antimicrobial activity” value (diluted with peritoneal dialysis solution) is “markedly enhances antimicrobial activity”.
